Tests used:
Experiment in all cases: relative viability (nuclei count vs DMSO), 5 days (fraction); higher = more cells survive
[1] = compound: C1/C(=C\C2=CC=CS2)/C(=O)/C(=C/C3=CC=CS3)/C1 + CC1(C)CCC(c2ccc(Cl)cc2)=C(CN2CCN(c3ccc(C(=O)NS(=O)(=O)c4ccc(N[C@H](CCN5CCOCC5)CSc5ccccc5)c(S(=O)(=O)C(F)(F)F)c4)cc3)CC2)C1 [Navitoclax] (partner 0.5 µM)
How it was run: (§1)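 Relative viability divides the nuclei count in treated wells by that in vehicle wells. Lung cancer cell lines were seeded in 1536-well plates, dosed by pin tool the next day, and fixed and stained after 5 days in one step with final 0.05% Triton X-100, 1% formaldehyde and 1 ug/ml Hoechst. Dosing was a single drug or a fixed anchor-drug dose plus five library-drug doses (not always all listed) in √10 steps, and values are medians of duplicate plates imaged at 4×.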

Lestaurtinib + Dasatinib = compound: C[C@]12O[C@H](C[C@]1(O)CO)n1c3ccccc3c3c4c(c5c6ccccc6n2c5c31)CNC4=O [Lestaurtinib] + Cc1nc(Nc2ncc(C(=O)Nc3c(C)cccc3Cl)s2)cc(N2CCN(CCO)CC2)n1 [Dasatinib] (partner 0.075 µM)
How it was run: as §1

[2] = compound: C1/C(=C\C2=CC=CS2)/C(=O)/C(=C/C3=CC=CS3)/C1 + CS(=O)(=O)CCNCc1ccc(-c2ccc3ncnc(Nc4ccc(OCc5cccc(F)c5)c(Cl)c4)c3c2)o1 [Lapatinib] (partner 2 µM)
How it was run: as §1

TPCA-1 + Vorinostat = compound: C1=CC(=CC=C1C2=CC(=C(S2)NC(=O)N)C(=O)N)F [TPCA-1] + O=C(CCCCCCC(=O)Nc1ccccc1)NO [Vorinostat] (partner 1 µM)
How it was run: as §1

Row | Cell Line | relative viability ([1]; first compound 0.2 µM) | relative viability ([1]; first compound 0.6325 µM) | relative viability ([1]; first compound 2 µM) | relative viability ([1]; first compound 6.325 µM) | relative viability ([1]; first compound 20 µM) | relative viability (Lestaurtinib + Dasatinib; first compound 0.005 µM) | relative viability (Lestaurtinib + Dasatinib; first compound 0.01581 µM) | relative viability (Lestaurtinib + Dasatinib; first compound 0.05 µM) | relative viability (Lestaurtinib + Dasatinib; first compound 0.1581 µM) | relative viability (Lestaurtinib + Dasatinib; first compound 0.5 µM) | relative viability ([2]; first compound 0.2 µM) | relative viability ([2]; first compound 0.6325 µM) | relative viability ([2]; first compound 2 µM) | relative viability ([2]; first compound 6.325 µM) | relative viability ([2]; first compound 20 µM) | relative viability (TPCA-1 + Vorinostat; first compound 0.04 µM) | relative viability (TPCA-1 + Vorinostat; first compound 0.1265 µM) | relative viability (TPCA-1 + Vorinostat; first compound 0.4 µM) | relative viability (TPCA-1 + Vorinostat; first compound 1.265 µM) | relative viability (TPCA-1 + Vorinostat; first compound 4 µM)
1 | HARA | 1.1 | 1.15 | 1.13 | 0.497 | 1.11 | 0.27 | 0.3 | 0.21 | 0.261 | 0.238 | 0.768 | 0.657 | 0.874 | 0.321 | 0.818 | 0.55 | 0.51 | 0.528 | 0.433 | 0.361
2 | HCC-15 | 0.696 | 0.676 | 0.682 | 0.621 | 0.615 | 0.73 | 0.702 | 0.485 | 0.38 | 0.169 | 0.929 | 0.897 | 0.835 | 0.762 | 0.854 | 0.914 | 0.758 | 0.84 | 0.782 | 0.806
3 | HCC-44 | 0.903 | 0.987 | 0.935 | 0.832 | 0.895 |  |  |  |  |  | 0.979 | 1.02 | 1 | 0.728 | 0.975 | 1.09 | 1.07 | 0.95 | 1.1 | 0.85
4 | HCC-78 | 0.81 | 0.786 | 0.82 | 0.682 | 0.782 | 0.341 | 0.669 | 0.294 | 0.25 | 0.218 | 0.759 | 0.828 | 1.1 | 0.562 | 0.814 | 0.445 | 0.422 | 0.42 | 0.469 | 0.28
5 | HCC-366 | 1.09 | 1 | 0.955 | 1.05 | 1.05 | 0.74 | 0.659 | 0.518 | 0.516 | 0.185 | 1.14 | 0.926 | 1.07 | 0.84 | 0.931 |  | 0.288 | 0.359 | 0.285 | 0.0534
6 | IA-LM | 0.938 | 0.925 | 0.88 | 0.565 | 0.704 |  |  |  |  |  | 1.08 | 0.749 | 0.779 | 0.757 | 0.67 | 1.02 | 0.942 | 0.999 |  | 0.699
7 | LCLC-103H |  |  |  |  |  | 0.474 | 0.464 | 0.405 | 0.325 | 0.224 |  |  |  |  |  | 0.839 | 0.764 | 0.818 | 0.525 | 0.363
8 | NCI-H358 |  |  |  |  |  | 0.15 | 0.129 | 0.162 | 0.105 | 0.115 | 0.435 | 0.482 | 0.475 | 0.459 | 0.424 | 0.695 | 0.576 | 0.634 | 0.409 | 0.168
9 | NCI-H441 | 0.779 | 0.769 | 0.523 | 0.527 | 0.572 | 0.521 | 0.58 | 0.431 | 0.548 | 0.482 |  |  |  |  |  | 0.776 | 0.636 | 0.717 | 0.577 | 0.476
10 | NCI-H522 |  |  |  |  |  | 0.798 | 0.807 | 0.934 | 0.821 | 0.493 |  |  |  |  |  | 1.03 | 0.819 | 1 | 0.842 | 0.987
11 | NCI-H650 |  |  |  |  |  | 0.405 | 0.397 | 0.301 | 0.315 | 0.232 | 0.944 | 1.17 | 1.05 | 0.925 | 0.989 | 0.414 | 0.402 | 0.41 | 0.308 | 0.27
12 | NCI-H661 |  |  |  |  |  | 0.99 | 0.953 | 0.851 | 0.81 | 0.319 | 0.465 | 0.49 | 0.507 | 0.475 | 0.516 | 0.739 | 0.759 | 0.806 | 0.754 | 0.483
13 | NCI-H1299 | 1.08 | 1.08 | 1.03 | 0.973 | 1.05 |  |  |  |  |  | 1.04 | 0.951 | 0.909 | 0.939 | 0.995 |  |  |  |  | 
14 | NCI-H1563 |  |  |  |  |  | 0.487 | 0.447 | 0.499 | 0.409 | 0.362 | 0.996 | 0.903 | 0.97 | 0.953 | 0.955 |  |  |  |  | 
15 | NCI-H1623 |  |  |  |  |  | 0.493 | 0.576 | 0.584 | 0.513 | 0.497 |  |  |  |  |  |  |  |  |  | 
16 | NCI-H1648 |  |  |  |  |  |  |  |  |  |  |  |  |  |  |  | 0.4 | 0.486 | 0.528 | 0.704 | 0.631
17 | NCI-H1703 | 1.3 | 1.8 | 1.32 | 1.05 | 1.14 |  |  |  |  |  | 1.21 | 1.21 | 1.18 | 1.1 | 1.11 |  |  |  |  | 
18 | NCI-H1792 | 0.666 | 0.579 | 0.743 |  | 0.624 | 1.04 | 1.33 | 0.65 | 0.835 | 0.616 | 0.819 | 0.915 | 1.04 |  | 0.899 |  |  |  |  | 
19 | NCI-H2342 |  |  |  |  |  | 0.328 | 0.314 | 0.264 | 0.313 | 0.259 |  |  |  |  |  | 0.77 | 0.699 | 0.681 | 0.683 | 0.663
20 | SW 900 |  |  |  |  |  | 0.739 | 0.702 | 0.445 | 0.57 | 0.32 |  |  |  |  |  |  |  | 0.515 | 0.422 | 0.45

Reference: the supplement of paper PMC10307832
